Read-outs that look alike come from different tables or passages of the source.
Key:
[1] = target: T1, Pisum sativum agglutinin (PSA, pea lectin) (Lathyrus oleraceus, UniProt P02867); experiment: ITC at […] K; assay type: binding
T1 sequence (P02867 31-217): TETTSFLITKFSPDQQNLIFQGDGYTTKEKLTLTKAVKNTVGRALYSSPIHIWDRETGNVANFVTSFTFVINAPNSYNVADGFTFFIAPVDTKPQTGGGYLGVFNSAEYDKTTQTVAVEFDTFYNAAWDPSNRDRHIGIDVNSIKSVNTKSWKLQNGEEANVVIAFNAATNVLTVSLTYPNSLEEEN
T1 sequence (P02867 218-275): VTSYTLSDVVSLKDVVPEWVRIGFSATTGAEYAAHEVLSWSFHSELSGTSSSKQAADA

[2] = target: T1, Pisum sativum agglutinin (PSA, pea lectin); experiment: ITC at […] K; assay type: binding; remark: listed apart in the source

Row | Kd [1] [µM] | Kd [2] [µM] | SMILES
1 | 806 ± 32 | – | CO[C@H]1O[C@H](CO)[C@@H](O)[C@H](O)[C@@H]1O [compound 1, methyl α-D-mannopyranoside]
2 | – | 621 ± 11 | OC[C@H]1O[C@H](OC[C@H]2O[C@H](O)[C@@H](O)[C@@H](O[C@H]3O[C@H](CO)[C@@H](O)[C@H](O)[C@@H]3O)[C@@H]2O)[C@@H](O)[C@@H](O)[C@@H]1O [compound 2, 3,6-di-O-(α-D-mannopyranosyl)-α-D-mannopyranose]
